Structures are written as SMILES.

The test system of one assay is honeybees. The experiment in a line: Test for Confirmation of Honeybee Repelling Effect 1, 2, 3 (feeding station with 40% sugar water). The note with it: 2 % strength. In kind it is in vivo. The source says: The following were used as the test samples for Examples: 2% by weight per volume ethanol solutions of octane (a-1), tetradecane (a-2), heptadecane (a-3), nonadecane (a-4), 2-acetylfuran (b-1), 5-methyl-2-furaldehyde (b-2), furfural (b-3), furaneol (c-1), 2-acetylpyrrole (d-1), 1-benzylpyrrole (d-2), 1-octanol (e-1), 1-dodecanol (e-2), and 1-octadecanol (e-3), respectively; and 2% by weight per volume aqueous solutions of furfuryl alcohol (b-4), sotolon (c-2), and α-angelicalactone (c-3), respectively.
The following were used as the test samples for Comparative Examples: 2% by weight per volume ethanol solutions of eicosane (carbon number 20, p-1), heneicosane (carbon number 21, p-2), 2-methyloctane (branched alkane, p-3), tributyl o-acetylcitrate (p-4), and 1-methylpyrrole (p-5), respectively; and 2% by weight per volume aqueous solutions of 2-methyltetrahydrofuran-3-one (p-6) and acetic acid (p-7), respectively.
Ethanol alone and water alone were used as samples for correction.
The cotton pads 13 were impregnated with 40% sugar water (80 g), after which disposable wooden chopsticks 15 (80 mm in length) were placed over the cotton pads on the lid surface as “landing areas,” for use as “test insect (honeybee) feeding station 1” 10.
A nest box of test insects (honeybees) (1 colony: approx. 6,000 bees) was placed at the center of a glass hothouse (bottom face: 5 m×10 m, height (highest part): 3 m, temperature: 25° C.), and the aforementioned “test insect (honeybee) feeding station 1” was installed at a location 2 meters away from the nest box.
After confirming that at least five test insects (honeybees) were feeding at the above “test insect (honeybee) feeding station 1” installed in the hothouse, test 1 was conducted to measure the “approaching count (Mz)” and “landing count (My)” and calculate the “landing rate (Mx).”
Next, the “test insect (honeybee) feeding station 1” installed in the hothouse was replaced with each “test insect (honeybee) feeding station 2” which was let to stand still for 5 minutes, after which test 2 was conducted to measure the “approaching count (Nz)” and “landing count (Ny)” and calculate the “landing rate (Nx).”
Approaching count: Total number of times a honeybee has approached within 25 cm of the cotton wools at the feeding station during 5 minutes
Landing count: Total number of honeybees that have remained for at least 1 second on the cotton pads at the feeding station during 5 minutes
Landing rate (%): (Landing count/Approaching count)×100
The “repelling rate Q” and “corrected repelling rate R” were calculated from the above “landing rates” using the calculation formula below. For the “repelling rate of sample for correction” used to calculate the “corrected repelling rate R,” the repelling rate of each of the samples for correction above (ethanol alone or water alone being a solvent for the active ingredient) was used.
Repelling rate Q (%)={(Mx)−(Nx)}/(Mx)×100
Corrected repelling rate R (%)={Repelling rate of test sample−Repelling rate of sample for correction}/{100−Repelling rate of sample for correction}×100
The following were used as the test samples for Examples: 0.1% by weight per volume ethanol solutions of 3-methyl-2-butanol (e-4), carvacrol (x-1), isoeugenol (x-2), cinnamyl alcohol (x-3), diacetone alcohol (x-4), α-amylcinnamaldehyde (x-5), 3-methyl-2-butenal (x-6), valeraldehyde (x-7), ethyl cinnamate (x-8), methyl cinnamate (x-9), ethyl isovalerate (x-10), isoamyl formate (x-11), 5-ethyl-2-methylpyridine (x-12), 2-(3-phenylpropyl)pyridine (x-13), 2,6-dimethylpyridine (x-14), ß-ionone (x-15), 2-acetylthiazole (x-16), butylamine (x-17), and citronella oil (x-18), respectively; and a 0.1% by weight per volume aqueous solution of (3-amino-3-carboxypropyl)dimethylsulfonium chloride (x-19).
As for `O=Cc1ccco1` [b-3, furfural], the “Corrected repelling rate R (%)” value was 93.6%.

The same assay, now with this note: Test 1; 2% by weight per volume solution.
With `CCCCCCCCCCCCCCCCC` [a-3, heptadecane], the “repelling effect / repelled behaviors of honeybees (in words)” value (shortened to “repelling effect / repelled behaviors”) was “excellent repelling effect”.

As to `CC(=O)c1ccc[nH]1` [d-1, 2-acetylpyrrole], the “repelling effect / repelled behaviors” value is listed as “excellent repelling effect”.

Consider `c1ccc(Cn2cccc2)cc1` [d-2, 1-benzylpyrrole], for which the “repelling effect / repelled behaviors” value is given as “excellent repelling effect”.

For `CCCCCCCCCCCCCCCCCCCC` [p-1, eicosane, reference compound], the “repelling effect / repelled behaviors” value is “not observed at all”.

In the case of `CCCCCCCCCCCCCCCCCCCCC` [p-2, heneicosane, reference compound], the “repelling effect / repelled behaviors” value is “not observed at all”.

Take `CCCCCCC(C)C` [p-3, 2-methyloctane, reference compound]: the “repelling effect / repelled behaviors” value is given as “not observed at all”.

Turning to `Cn1cccc1` [p-5, 1-methylpyrrole, reference compound], the “repelling effect / repelled behaviors” value is given as “not observed at all”.

As to `CC1OCCC1=O` (stereo not shown) [p-6, 2-methyltetrahydrofuran-3-one, reference compound], the “repelling effect / repelled behaviors” value was “not observed at all”.

Still in this assay, the particulars now being: Test 1; honeybees; 2% by weight per volume solution, 5 mL sprayed (active ingredient 0.1 g).
`CCCCCCCCCCCCCCCCC` [a-3, heptadecane]: the “Corrected repelling rate R (%)” value turned out to be 28.2%.

As to `CCCCCCCCCCCCCCCCCCC` [a-4, nonadecane], the “Corrected repelling rate R (%)” value was determined as 56.7%.

For `Cc1ccc(C=O)o1` [b-2, 5-methyl-2-furaldehyde], the “Corrected repelling rate R (%)” value came to 55.3%.

`CC(=O)c1ccc[nH]1` [d-1, 2-acetylpyrrole]: the “Corrected repelling rate R (%)” value is 37.0%.

Regarding `c1ccc(Cn2cccc2)cc1` [d-2, 1-benzylpyrrole], the “Corrected repelling rate R (%)” value came out at 68.3%.

Consider `CCCCCCCCO` [e-1, 1-octanol], for which the “Corrected repelling rate R (%)” value stood at 58.3%.

Take `CCCCCCCCCCCCO` [e-2, 1-dodecanol]: the “Corrected repelling rate R (%)” value is reported as 84.6%.

For `CCCCCCCCCCCCCCCCCCO` [e-3, 1-octadecanol], the “Corrected repelling rate R (%)” value was 16.2%.

Turning to `CCCCCCCCCCCCCCCCCCCC` [p-1, eicosane, reference compound], the “Corrected repelling rate R (%)” value is <0%.

Take `CCCCCCCCCCCCCCCCCCCCC` [p-2, heneicosane, reference compound]: the “Corrected repelling rate R (%)” value was <0%.

Regarding `CCCCCCC(C)C` [p-3, 2-methyloctane, reference compound], the “Corrected repelling rate R (%)” value is reported as <0%.

Take `CCCCOC(=O)CC(CC(=O)OCCCC)(OC(C)=O)C(=O)OCCCC` [p-4, tributyl o-acetylcitrate, reference compound]: the “Corrected repelling rate R (%)” value is <0%.

For the molecule `Cn1cccc1` [p-5, 1-methylpyrrole, reference compound], the “Corrected repelling rate R (%)” value was <0%.

`CC1OCCC1=O` (stereo not shown) [p-6, 2-methyltetrahydrofuran-3-one, reference compound]: the “Corrected repelling rate R (%)” value is <0%.

As to `CC(=O)O` [p-7, acetic acid, reference compound], the “Corrected repelling rate R (%)” value was <0%.

Still in this assay, the particulars now being: Test 2; honeybees; 0.1% by weight per volume solution, 5 mL (active ingredient 5 mg).
Turning to `CC=Cc1ccc(O)c(OC)c1` [x-2, isoeugenol], the “Corrected repelling rate R (%)” value is recorded as 64.6%.

As to `CC(=O)CC(C)(C)O` [x-4, diacetone alcohol], the “Corrected repelling rate R (%)” value came out at 20.9%.

For the molecule `CCCCCC(C=O)=Cc1ccccc1` [x-5, α-amylcinnamaldehyde], the “Corrected repelling rate R (%)” value is recorded as 77.8%.

`CC(=O)c1nccs1` [x-16, 2-acetylthiazole]: the “Corrected repelling rate R (%)” value was 61.7%.

Staying with this assay, now noted: Test 3; 0.1% by weight per volume solution, 5 mL.
For the molecule `CC(C)CO.CC(C)CO` [e-5, 2-methyl-1-propanol (isobutanol)], the “Corrected repelling rate (%) Honeybees” value was 88.2%.

Consider `CC(C)CCO` [e-6, 3-methyl-1-butanol], for which the “Corrected repelling rate (%) Honeybees” value turned out to be 65.4%.

Regarding `CCC=O` [y-11, propionaldehyde], the “Corrected repelling rate (%) Honeybees” value worked out at 64.0%.

For the molecule `CCCCCCCC=O` [y-12, n-octanal], the “Corrected repelling rate (%) Honeybees” value is on record as 96.3%.

For `C/C=C(\C)C=O` [y-13, trans-2-methyl-2-butenal], the “Corrected repelling rate (%) Honeybees” value was determined as 67.4%.

Regarding `CCCC=O` [y-15, butylaldehyde], the “Corrected repelling rate (%) Honeybees” value worked out at 51.0%.

For `CCCOC(=O)c1ccc(O)cc1` [y-16, propyl 4-hydroxybenzoate], the “Corrected repelling rate (%) Honeybees” value is 89.7%.

As for `CC(=O)OCc1ccccc1` [y-19, benzyl acetate], the “Corrected repelling rate (%) Honeybees” value stood at 83.2%.

Take `CC(C)COC(=O)Cc1ccccc1` [y-21, isobutyl phenylacetate]: the “Corrected repelling rate (%) Honeybees” value is reported as 80.5%.

Regarding `CCC(=O)OCc1ccccc1` [y-23, benzyl propionate], the “Corrected repelling rate (%) Honeybees” value was 26.0%.

With `CC(=O)OC1CC(C)CCC1C(C)C` (stereo not shown) [y-26, menthyl acetate], the “Corrected repelling rate (%) Honeybees” value worked out at 76.4%.

Turning to `CC(=O)OC(C)(C)C1CC=C(C)CC1` (stereo not shown) [y-29, terpinyl acetate], the “Corrected repelling rate (%) Honeybees” value is listed as 81.2%.

Regarding `CC(=O)OCCC(C)CCC=C(C)C` (stereo not shown) [y-30, citronellyl acetate], the “Corrected repelling rate (%) Honeybees” value is reported as 91.1%.

In the case of `C/C=C(\C)C(=O)OC/C=C(\C)CCC=C(C)C` [y-31, geranyl tiglate], the “Corrected repelling rate (%) Honeybees” value is reported as 70.3%.

On to `CNc1ccccc1C(=O)OC` [y-34, methyl N-methylanthranilate], for which the “Corrected repelling rate (%) Honeybees” value is reported as 78.6%.

Regarding `CCCCOC(=O)CCC` [y-35, butyl butyrate], the “Corrected repelling rate (%) Honeybees” value was 61.7%.

With `CCCCCCCC(=O)OCCCC` [y-36, butyl n-octanoate], the “Corrected repelling rate (%) Honeybees” value stood at 52.0%.

Regarding `CCCCCCCCCC(=O)OCC` [y-38, ethyl decanoate], the “Corrected repelling rate (%) Honeybees” value is recorded as 58.7%.

Regarding `CCCCCCCCCCCCCCC(=O)OCC` [y-40, ethyl pentadecanoate], the “Corrected repelling rate (%) Honeybees” value turned out to be 77.6%.

Take `Cc1cnc(C)c(C)n1` [y-55, 2,3,5-trimethylpyrazine]: the “Corrected repelling rate (%) Honeybees” value is listed as 80.6%.

As for `CCc1nccnc1CC` [y-56, 2,3-diethylpyrazine], the “Corrected repelling rate (%) Honeybees” value came to 57.0%.

Regarding `Cc1cnccn1` [y-58, 2-methylpyrazine], the “Corrected repelling rate (%) Honeybees” value is 55.0%.

In the case of `CCc1nccnc1C` [y-59, 2-ethyl-3-methylpyrazine], the “Corrected repelling rate (%) Honeybees” value is 72.8%.

Turning to `Cc1cncc(C)n1` [y-60, 2,6-dimethylpyrazine], the “Corrected repelling rate (%) Honeybees” value amounted to 35.4%.

For the molecule `O=C1CCCO1` [y-64, γ-butyrolactone], the “Corrected repelling rate (%) Honeybees” value came to 27.5%.

As to `CC(=O)c1ccc2ccccc2c1` [y-67, 2′-acetonaphtone], the “Corrected repelling rate (%) Honeybees” value is reported as 91.0%.

On to `CC(=O)c1ccc(C)cc1` [y-68, 4-methylacetophenone], for which the “Corrected repelling rate (%) Honeybees” value is reported as 84.3%.

Turning to `CC(=O)CC(C)=O` [y-70, acetylacetone], the “Corrected repelling rate (%) Honeybees” value was found to be 21.5%.

With `CC(=O)/C=C/C1C(C)=CCCC1(C)C` (stereo not drawn) [y-71, α-ionone], the “Corrected repelling rate (%) Honeybees” value came out at 90.0%.

With `CCCCCC(=O)O` [y-72, hexanoic acid], the “Corrected repelling rate (%) Honeybees” value was determined as 89.4%.

The same assay, now with this note: Test 3; 2.0% by weight per volume solution, 5 mL.
On to `CCC(=O)O` [p-8, propionic acid, reference compound], for which the “Corrected repelling rate (%) Honeybees” value is on record as <0%.

In the case of `CSCCCO` [y-3, methionol], the “Corrected repelling rate (%) Honeybees” value is on record as 84.7%.

Regarding `CC(CC=O)CCCC(C)(C)O` (stereo not shown) [y-9, hydroxycitronellal], the “Corrected repelling rate (%) Honeybees” value is on record as 92.8%.

Consider `CCOC(=O)Cc1ccccc1` [y-24, ethyl phenylacetate], for which the “Corrected repelling rate (%) Honeybees” value is 55.5%.

Take `CCCCCCCC(=O)OCC` [y-48, ethyl octanoate]: the “Corrected repelling rate (%) Honeybees” value was determined as 94.1%.

Consider `CC(C)CCOC(=O)CC(C)C` [y-52, isoamyl isovalerate], for which the “Corrected repelling rate (%) Honeybees” value is recorded as 23.5%.

Regarding `CC(=O)OCCC(C)C` [y-53, isoamyl acetate], the “Corrected repelling rate (%) Honeybees” value was 23.0%.

For `CCc1cccnc1` [y-62, 3-ethylpyridine], the “Corrected repelling rate (%) Honeybees” value worked out at 58.3%.

Turning to `CC(=O)c1ccccc1` [y-69, acetophenone], the “Corrected repelling rate (%) Honeybees” value turned out to be 98.9%.
